In ChEMBL document CHEMBL5291721, “A preclinical secondary pharmacology resource illuminates target-adverse drug reaction associations of marketed drugs” (Nat Commun, 2023):

Experiments:
Adenosine receptor A2a = Adenosine receptor A2a (Homo sapiens, UniProt P29274)
[1] = molecular target: T1, Alpha-2A adrenergic receptor (Homo sapiens, UniProt P08913); assay type: functional, cell-based
T1 sequence (P08913 whole entry): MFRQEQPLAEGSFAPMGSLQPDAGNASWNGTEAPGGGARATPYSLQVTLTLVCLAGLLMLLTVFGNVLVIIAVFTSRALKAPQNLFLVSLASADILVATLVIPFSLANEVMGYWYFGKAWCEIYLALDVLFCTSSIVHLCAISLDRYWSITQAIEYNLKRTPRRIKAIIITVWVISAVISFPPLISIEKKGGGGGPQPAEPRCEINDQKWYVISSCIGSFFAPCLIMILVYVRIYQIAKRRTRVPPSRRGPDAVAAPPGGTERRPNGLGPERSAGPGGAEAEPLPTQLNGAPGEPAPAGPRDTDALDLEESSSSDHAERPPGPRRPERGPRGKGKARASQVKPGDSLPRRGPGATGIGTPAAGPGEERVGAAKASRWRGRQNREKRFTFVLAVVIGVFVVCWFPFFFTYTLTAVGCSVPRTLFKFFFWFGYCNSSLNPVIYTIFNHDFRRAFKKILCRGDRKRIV

[2] = molecular target: T2, Alpha-2C adrenergic receptor (Homo sapiens, UniProt P18825); assay type: functional
T2 sequence (P18825 whole entry): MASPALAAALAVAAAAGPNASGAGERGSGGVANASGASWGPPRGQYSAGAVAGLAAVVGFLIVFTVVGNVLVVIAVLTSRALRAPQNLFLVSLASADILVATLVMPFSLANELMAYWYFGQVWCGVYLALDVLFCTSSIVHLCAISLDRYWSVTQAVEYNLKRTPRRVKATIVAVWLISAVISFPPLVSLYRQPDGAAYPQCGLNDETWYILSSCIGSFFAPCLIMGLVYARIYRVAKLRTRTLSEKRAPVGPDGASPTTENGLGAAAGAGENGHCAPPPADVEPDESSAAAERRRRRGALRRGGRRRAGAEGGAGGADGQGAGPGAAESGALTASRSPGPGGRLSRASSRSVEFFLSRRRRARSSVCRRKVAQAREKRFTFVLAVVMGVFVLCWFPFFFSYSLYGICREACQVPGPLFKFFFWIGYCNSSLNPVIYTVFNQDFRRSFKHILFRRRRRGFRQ

Cannabinoid receptor 1 [3] = molecular target: T3, Cannabinoid receptor 1 (Homo sapiens, UniProt P21554); assay type: functional, cell-based
Cannabinoid receptor 1 [4] = molecular target: T3, Cannabinoid receptor 1; assay type: functional, cell-based; remark: listed apart in the source
D(1A) dopamine receptor = D(1A) dopamine receptor (Homo sapiens, UniProt P21728); assay type: functional, cell-based
Endothelin-1 receptor = molecular target: T4, Endothelin-1 receptor (Homo sapiens, UniProt P25101)
T4 sequence (P25101 whole entry): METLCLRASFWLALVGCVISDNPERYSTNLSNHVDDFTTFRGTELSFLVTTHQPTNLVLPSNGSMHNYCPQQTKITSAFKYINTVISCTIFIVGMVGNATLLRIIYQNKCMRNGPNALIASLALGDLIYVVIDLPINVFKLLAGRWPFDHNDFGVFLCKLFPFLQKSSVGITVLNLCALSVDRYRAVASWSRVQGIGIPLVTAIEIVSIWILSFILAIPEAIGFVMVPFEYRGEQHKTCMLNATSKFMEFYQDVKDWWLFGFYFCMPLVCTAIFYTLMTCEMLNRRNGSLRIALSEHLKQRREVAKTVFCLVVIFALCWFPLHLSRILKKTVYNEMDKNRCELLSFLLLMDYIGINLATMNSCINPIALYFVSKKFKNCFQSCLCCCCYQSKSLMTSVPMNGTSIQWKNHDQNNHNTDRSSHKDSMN

[5] = molecular target: T5, Gamma-aminobutyric acid receptor subunit alpha-1 (Rattus norvegicus, UniProt P62813)
[6] = molecular target: T5, Gamma-aminobutyric acid receptor subunit alpha-1; assay type: functional
[7] = molecular target: T6, 5-hydroxytryptamine receptor 1A (Homo sapiens, UniProt P08908); assay type: functional, cell-based
T6 sequence (P08908 whole entry): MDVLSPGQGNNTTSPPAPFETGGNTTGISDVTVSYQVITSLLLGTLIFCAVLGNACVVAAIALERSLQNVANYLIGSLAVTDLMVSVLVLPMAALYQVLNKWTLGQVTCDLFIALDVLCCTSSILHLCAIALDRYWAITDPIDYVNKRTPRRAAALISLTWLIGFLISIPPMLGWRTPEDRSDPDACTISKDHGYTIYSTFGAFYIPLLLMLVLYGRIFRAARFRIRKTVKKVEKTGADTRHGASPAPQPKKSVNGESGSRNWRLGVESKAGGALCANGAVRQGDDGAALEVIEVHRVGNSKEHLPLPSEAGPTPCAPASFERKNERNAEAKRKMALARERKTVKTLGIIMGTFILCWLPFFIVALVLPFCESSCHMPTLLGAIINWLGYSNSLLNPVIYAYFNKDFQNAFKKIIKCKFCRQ

[8] = molecular target: T6, 5-hydroxytryptamine receptor 1A; assay type: functional, cell-based; remark: listed apart in the source
[9] = molecular target: Kappa-type opioid receptor (Homo sapiens, UniProt P41145)
[10] = molecular target: T7, Sodium-dependent dopamine transporter (Homo sapiens, UniProt Q01959)
D(3) dopamine receptor = D(3) dopamine receptor (Homo sapiens, UniProt P35462)
Histamine H3 receptor [11] = molecular target: T8, Histamine H3 receptor (Homo sapiens, UniProt Q9Y5N1)
Histamine H3 receptor [12] = molecular target: T8, Histamine H3 receptor; remark: listed apart in the source
Mu-type opioid receptor = Mu-type opioid receptor (Homo sapiens, UniProt P35372)
[13] = molecular target: T7, Sodium-dependent dopamine transporter; remark: listed apart in the source
Also: assay procedure not described here.

T7 sequence (Q01959 whole entry): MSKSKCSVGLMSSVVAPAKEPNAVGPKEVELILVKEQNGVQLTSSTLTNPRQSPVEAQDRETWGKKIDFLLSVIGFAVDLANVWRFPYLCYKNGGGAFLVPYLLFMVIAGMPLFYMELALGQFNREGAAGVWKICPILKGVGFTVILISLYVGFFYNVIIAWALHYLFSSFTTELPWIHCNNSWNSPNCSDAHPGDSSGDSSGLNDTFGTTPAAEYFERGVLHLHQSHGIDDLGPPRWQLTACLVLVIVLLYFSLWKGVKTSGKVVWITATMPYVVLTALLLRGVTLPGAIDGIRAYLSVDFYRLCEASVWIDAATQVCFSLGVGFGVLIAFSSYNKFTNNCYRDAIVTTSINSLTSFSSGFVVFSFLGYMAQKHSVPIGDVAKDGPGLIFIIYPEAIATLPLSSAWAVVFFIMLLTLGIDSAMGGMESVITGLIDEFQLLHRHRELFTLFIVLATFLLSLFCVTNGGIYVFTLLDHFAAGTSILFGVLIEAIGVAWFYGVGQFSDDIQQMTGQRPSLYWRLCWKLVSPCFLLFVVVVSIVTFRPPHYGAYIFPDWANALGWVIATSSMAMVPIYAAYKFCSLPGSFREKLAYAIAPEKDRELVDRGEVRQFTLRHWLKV
Chain of Adenosine receptor A2a (P29274 whole entry): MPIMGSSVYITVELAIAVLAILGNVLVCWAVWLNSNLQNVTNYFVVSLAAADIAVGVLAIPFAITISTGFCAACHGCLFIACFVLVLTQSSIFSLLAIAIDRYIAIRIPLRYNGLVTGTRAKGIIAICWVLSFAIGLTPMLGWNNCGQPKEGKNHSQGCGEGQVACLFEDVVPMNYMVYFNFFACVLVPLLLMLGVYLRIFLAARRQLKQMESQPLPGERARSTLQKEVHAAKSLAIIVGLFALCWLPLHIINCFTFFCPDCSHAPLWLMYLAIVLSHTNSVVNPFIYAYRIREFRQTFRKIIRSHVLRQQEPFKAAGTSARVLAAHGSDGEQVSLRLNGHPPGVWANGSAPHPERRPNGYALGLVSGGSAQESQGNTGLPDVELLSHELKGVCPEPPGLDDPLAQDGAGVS
Chain of Mu-type opioid receptor (P35372 whole entry): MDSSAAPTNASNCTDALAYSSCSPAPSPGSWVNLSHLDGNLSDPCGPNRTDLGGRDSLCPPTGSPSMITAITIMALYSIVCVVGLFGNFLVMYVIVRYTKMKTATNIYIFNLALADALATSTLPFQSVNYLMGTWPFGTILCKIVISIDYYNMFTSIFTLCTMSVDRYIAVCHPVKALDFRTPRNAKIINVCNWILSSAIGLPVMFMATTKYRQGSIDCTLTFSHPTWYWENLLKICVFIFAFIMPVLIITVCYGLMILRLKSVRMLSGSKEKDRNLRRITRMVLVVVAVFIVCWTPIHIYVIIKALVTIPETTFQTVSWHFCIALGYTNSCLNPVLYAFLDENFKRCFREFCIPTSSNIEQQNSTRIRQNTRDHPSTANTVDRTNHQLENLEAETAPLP
Chain of D(1A) dopamine receptor (P21728 whole entry): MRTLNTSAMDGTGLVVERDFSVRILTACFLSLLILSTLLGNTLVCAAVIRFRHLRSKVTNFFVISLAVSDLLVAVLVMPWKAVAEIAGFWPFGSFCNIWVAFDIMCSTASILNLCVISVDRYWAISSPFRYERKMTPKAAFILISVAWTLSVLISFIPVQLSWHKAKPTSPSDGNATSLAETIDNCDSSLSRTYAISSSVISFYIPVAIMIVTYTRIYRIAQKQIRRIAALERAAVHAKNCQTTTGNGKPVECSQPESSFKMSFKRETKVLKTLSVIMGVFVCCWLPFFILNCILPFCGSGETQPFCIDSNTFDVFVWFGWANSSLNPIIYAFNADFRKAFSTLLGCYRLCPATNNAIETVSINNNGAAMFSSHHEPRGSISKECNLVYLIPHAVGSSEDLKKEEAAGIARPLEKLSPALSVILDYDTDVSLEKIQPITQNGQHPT
T8 sequence (Q9Y5N1 whole entry): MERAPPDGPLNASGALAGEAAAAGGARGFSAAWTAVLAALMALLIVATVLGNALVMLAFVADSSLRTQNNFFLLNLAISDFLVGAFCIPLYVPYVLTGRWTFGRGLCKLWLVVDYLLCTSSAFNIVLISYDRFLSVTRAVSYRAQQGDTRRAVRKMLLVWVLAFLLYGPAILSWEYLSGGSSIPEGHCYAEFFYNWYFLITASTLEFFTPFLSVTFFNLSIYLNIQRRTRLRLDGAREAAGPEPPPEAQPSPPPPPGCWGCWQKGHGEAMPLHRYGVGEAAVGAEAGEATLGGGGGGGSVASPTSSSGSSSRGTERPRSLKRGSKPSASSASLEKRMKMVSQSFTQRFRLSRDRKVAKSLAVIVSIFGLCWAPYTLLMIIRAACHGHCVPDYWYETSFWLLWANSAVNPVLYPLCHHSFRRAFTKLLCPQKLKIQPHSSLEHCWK
Chain of Kappa-type opioid receptor (P41145 whole entry): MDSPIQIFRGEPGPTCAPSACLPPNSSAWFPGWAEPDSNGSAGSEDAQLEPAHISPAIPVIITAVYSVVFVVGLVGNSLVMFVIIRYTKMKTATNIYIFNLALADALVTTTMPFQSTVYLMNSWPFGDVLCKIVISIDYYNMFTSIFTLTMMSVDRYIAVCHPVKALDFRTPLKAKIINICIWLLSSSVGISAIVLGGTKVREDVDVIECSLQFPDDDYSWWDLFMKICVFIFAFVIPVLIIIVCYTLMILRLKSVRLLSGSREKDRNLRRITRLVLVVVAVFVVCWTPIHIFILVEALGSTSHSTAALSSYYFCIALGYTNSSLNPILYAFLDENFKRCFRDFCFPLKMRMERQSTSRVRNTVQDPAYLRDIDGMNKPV
Chain of D(3) dopamine receptor (P35462 whole entry): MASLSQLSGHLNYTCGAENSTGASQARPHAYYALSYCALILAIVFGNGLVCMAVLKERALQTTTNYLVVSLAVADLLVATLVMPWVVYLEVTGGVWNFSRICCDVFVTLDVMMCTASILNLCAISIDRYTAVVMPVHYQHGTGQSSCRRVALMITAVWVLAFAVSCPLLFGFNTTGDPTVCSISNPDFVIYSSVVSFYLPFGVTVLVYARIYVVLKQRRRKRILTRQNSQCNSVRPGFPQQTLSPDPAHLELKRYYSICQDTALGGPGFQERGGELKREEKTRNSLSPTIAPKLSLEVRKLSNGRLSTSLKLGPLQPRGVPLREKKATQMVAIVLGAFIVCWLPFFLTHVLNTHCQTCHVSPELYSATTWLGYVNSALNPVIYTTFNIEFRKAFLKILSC
T5 sequence (P62813 whole entry): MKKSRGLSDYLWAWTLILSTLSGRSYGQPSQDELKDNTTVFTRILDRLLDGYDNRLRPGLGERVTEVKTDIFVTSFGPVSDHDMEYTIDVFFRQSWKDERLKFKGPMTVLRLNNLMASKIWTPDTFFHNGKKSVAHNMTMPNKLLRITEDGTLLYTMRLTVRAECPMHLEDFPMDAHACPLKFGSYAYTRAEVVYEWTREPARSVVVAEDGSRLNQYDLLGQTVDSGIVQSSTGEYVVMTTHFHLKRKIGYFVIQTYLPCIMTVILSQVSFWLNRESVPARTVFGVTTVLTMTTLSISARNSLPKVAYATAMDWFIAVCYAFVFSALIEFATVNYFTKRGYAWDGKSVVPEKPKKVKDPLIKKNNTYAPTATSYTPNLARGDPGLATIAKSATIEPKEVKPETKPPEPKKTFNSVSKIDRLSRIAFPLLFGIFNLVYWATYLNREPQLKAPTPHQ
T3 sequence (P21554 whole entry): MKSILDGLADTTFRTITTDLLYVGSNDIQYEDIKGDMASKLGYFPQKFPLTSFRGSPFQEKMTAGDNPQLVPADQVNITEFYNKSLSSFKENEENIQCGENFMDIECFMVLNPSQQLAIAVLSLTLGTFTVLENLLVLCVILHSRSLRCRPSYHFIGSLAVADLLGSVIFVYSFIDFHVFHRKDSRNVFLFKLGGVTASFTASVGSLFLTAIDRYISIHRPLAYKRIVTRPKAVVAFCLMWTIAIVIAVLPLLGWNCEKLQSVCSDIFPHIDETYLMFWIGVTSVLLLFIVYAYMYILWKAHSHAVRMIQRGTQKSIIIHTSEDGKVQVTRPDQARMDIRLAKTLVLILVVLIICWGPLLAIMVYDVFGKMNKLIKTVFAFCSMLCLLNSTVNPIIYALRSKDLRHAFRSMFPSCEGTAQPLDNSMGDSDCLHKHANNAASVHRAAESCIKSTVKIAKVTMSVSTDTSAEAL

AC50 (Adenosine receptor A2a) | AC50 [1] | AC50 [2] | AC50 (Cannabinoid receptor 1 [3]) | AC50 (Cannabinoid receptor 1 [4]) | AC50 (D(1A) dopamine receptor) | AC50 (Endothelin-1 receptor) | AC50 [5] | AC50 [6] | AC50 [7] | AC50 [8] | AC50 [9] | AC50 [10] | AC50 (D(3) dopamine receptor) | AC50 (Histamine H3 receptor [11]) | SMILES | AC50 (Histamine H3 receptor [12]) | AC50 (Mu-type opioid receptor) | AC50 [13]
> 30 µM | > 10 µM | > 10 µM | > 30 µM | > 30 µM | > 10 µM | > 30 µM | > 10 µM | > 10 µM | > 10 µM | > 10 µM | > 10 µM | > 10 µM | > 10 µM | > 10 µM | CCOC(=O)[C@H](CCc1ccccc1)N[C@@H](C)C(=O)N1CCC[C@H]1C(=O)O | – | – | –
> 30 µM | > 10 µM | > 10 µM | > 30 µM | > 30 µM | > 10 µM | > 30 µM | > 10 µM | > 10 µM | > 10 µM | > 10 µM | > 10 µM | > 10 µM | > 10 µM | > 10 µM | CCC[C@@H]1C[C@@H](C(=O)N[C@@H]([C@H]2O[C@H](SC)[C@H](O)[C@@H](O)[C@H]2O)[C@H](C)Cl)N(C)C1 [CLINDAMYCIN] | – | – | –
> 30 µM | > 10 µM | > 10 µM | > 30 µM | > 30 µM | > 10 µM | > 30 µM | > 10 µM | > 10 µM | > 10 µM | > 10 µM | > 10 µM | > 10 µM | > 10 µM | > 10 µM | NC(N)=Nc1nc(CSCCC(N)=NS(N)(=O)=O)cs1 [FAMOTIDINE] | – | – | –
> 30 µM | > 10 µM | > 10 µM | – | – | > 10 µM | > 30 µM | > 10 µM | > 10 µM | > 10 µM | > 10 µM | > 10 µM | > 10 µM | > 10 µM | > 10 µM | NS(=O)(=O)c1cc2c(cc1Cl)NCNS2(=O)=O [HYDROCHLOROTHIAZIDE] | – | – | –
– | – | – | – | – | – | – | – | – | – | – | – | – | – | – | CC(=O)Oc1c(C)cc(OCC(O)CNC(C)C)c(C)c1C (stereo not given) [METIPRANOLOL] | > 30 µM | > 30 µM | > 30 µM
> 30 µM | > 10 µM | 3 µM | > 30 µM | > 30 µM | > 10 µM | > 30 µM | > 10 µM | > 10 µM | > 10 µM | > 10 µM | > 10 µM | > 10 µM | 0.076 µM | > 10 µM | CCN(CC)CCNC(=O)c1cc(Cl)c(N)cc1OC [METOCLOPRAMIDE] | – | – | –
– | – | – | – | – | – | – | – | – | – | – | – | – | – | – | CC(N/C(=N\C#N)Nc1ccncc1)C(C)(C)C (stereo not given) [PINACIDIL ANHYDROUS] | > 10 µM | > 30 µM | > 30 µM
> 30 µM | > 30 µM | > 30 µM | > 30 µM | > 30 µM | > 30 µM | > 30 µM | > 10 µM | > 30 µM | > 30 µM | > 30 µM | > 10 µM | > 30 µM | > 30 µM | > 30 µM | CC[C@H](C)C(=O)O[C@H]1C[C@H](O)C=C2C=C[C@H](C)[C@H](CC[C@@H](O)C[C@@H](O)CC(=O)O)[C@H]21 [PRAVASTATIN] | – | – | –
– | – | – | – | – | – | – | – | – | – | – | – | – | – | – | CC(O)CO (stereo not given) [PROPYLENE GLYCOL] | > 30 µM | > 30 µM | > 30 µM
– | – | – | – | – | – | – | – | – | – | – | – | – | – | – | CN(C)C(=O)Oc1ccc[n+](C)c1 [PYRIDOSTIGMINE] | > 30 µM | > 30 µM | > 30 µM
– | – | – | – | – | – | – | – | – | – | – | – | – | – | – | Cc1cc2c(cc1CC(=O)c1sccc1S(=O)(=O)Nc1onc(C)c1Cl)OCO2 [SITAXENTAN] | > 30 µM | > 30 µM | > 30 µM
– | – | – | – | – | – | – | – | – | – | – | – | – | – | – | CC(C)OC(=O)[C@H](C)N[P@](=O)(OC[C@H]1O[C@@H](n2ccc(=O)[nH]c2=O)[C@](C)(F)[C@@H]1O)Oc1ccccc1 [SOFOSBUVIR] | > 30 µM | > 30 µM | > 30 µM
– | – | – | – | – | – | – | – | – | – | – | – | – | – | – | Cc1ccc(O)c2ncccc12 [TILIQUINOL] | > 30 µM | > 30 µM | > 30 µM
– | – | – | – | – | – | – | – | – | – | – | – | – | – | – | CC(=O)OC[C@H]1O[C@@H](n2ccc(=O)[nH]c2=O)[C@H](OC(C)=O)[C@@H]1OC(C)=O [URIDINE TRIACETATE] | > 30 µM | > 30 µM | > 30 µM
– | – | – | – | – | – | – | – | – | – | – | – | – | – | – | CCOC(=O)N[C@@H]1CC[C@@H]2[C@@H](C1)C[C@H]1C(=O)O[C@H](C)[C@H]1[C@H]2/C=C/c1ccc(-c2cccc(F)c2)cn1 [VORAPAXAR] | > 10 µM | 0.82 µM | > 30 µM

SMILES | AC50 (Adenosine receptor A2a) | AC50 [1] | AC50 [2] | AC50 (Cannabinoid receptor 1 [3]) | AC50 (Cannabinoid receptor 1 [4]) | AC50 (D(1A) dopamine receptor) | AC50 (Endothelin-1 receptor) | AC50 [5] | AC50 [6] | AC50 [7] | AC50 [8] | AC50 [9] | AC50 [10] | AC50 (D(3) dopamine receptor) | AC50 (Histamine H3 receptor [11]) | AC50 (Histamine H3 receptor [12]) | AC50 (Mu-type opioid receptor) | AC50 [13]
Oc1ncnc2[nH]ncc12 [ALLOPURINOL] | > 30 µM | > 10 µM | > 10 µM | > 30 µM | > 30 µM | > 10 µM | > 30 µM | > 10 µM | > 10 µM | > 10 µM | > 10 µM | > 10 µM | > 10 µM | > 10 µM | > 30 µM | > 30 µM | > 30 µM | > 30 µM
COc1cc(Nc2c(C#N)cnc3cc(OCCCN4CCN(C)CC4)c(OC)cc23)c(Cl)cc1Cl [BOSUTINIB] | > 30 µM | – | 1 µM | – | – | – | > 30 µM | – | > 10 µM | – | – | 10 µM | 8.75 µM | 5.6 µM | – | – | 15.3 µM | 7.55 µM
CN(C)CCCN1c2ccccc2CCc2ccc(Cl)cc21 [CLOMIPRAMINE] | – | > 10 µM | – | – | – | – | – | > 10 µM | > 10 µM | > 30 µM | – | – | 14.6 µM | 0.3 µM | 3.8 µM | > 30 µM | 1.9 µM | 4.82 µM
C#C[C@]1(O)CC[C@H]2[C@@H]3CCc4cc(O)ccc4[C@H]3CC[C@@]21C [ETHINYL ESTRADIOL] | > 30 µM | > 10 µM | > 10 µM | – | – | > 10 µM | > 30 µM | > 10 µM | > 10 µM | 5.7 µM | – | > 10 µM | 2.81 µM | > 10 µM | > 10 µM | > 30 µM | 20.6 µM | 0.8 µM
CC(C)NNC(=O)c1ccncc1 [IPRONIAZID] | > 30 µM | > 30 µM | > 30 µM | > 30 µM | > 30 µM | > 30 µM | > 30 µM | – | > 30 µM | > 30 µM | > 30 µM | – | > 30 µM | > 30 µM | > 30 µM | – | – | –
